The record followed here is patent publication US20140113876A1, “BIOMARKERS FOR ASSESSING TREATMENT OF SIALIC ACID DEFICIENCY DISEASES AND CONDITIONS” (ULTRAGENYX PHARMACEUTICAL INC., priority 2012, published 2014).

This test has as its system HIBM patients. The test can be described thus: Phase 2 clinical trial: change in serum biomarker levels between week 0 and week 24 per dosage group (Human Discovery MAP250+ v2.0 immunoassay). It counts as in vivo. How it is done:
Forty-seven (47) HIBM patient serum samples collected at week 24 from phase 2 study were tested using the Human Discovery MAP250+ v2.0 quantitative immunoassay system developed by Myriad RBM. The results were compared to the serum samples of the same 47 HIBM patients collected at week 0 (baseline) which were conducted earlier with the same immunoassay system.
Patients were unblinded and the results were organized into the 3 assigned dosage groups, placebo (n=14), 3 g/day (n=17) and 6 g/day (n=14). The major focus of the analysis was 1) to assess changes (delta, A) in levels of analytes between baseline and week 24 in each dosage group, 2) whether the changes correlate to dosage levels.
Analytes were excluded from analysis if […] of the HIBM patient samples were below least detectable dose (LDD). Within each dosage group, individual values with >5× difference to the mean of the dosage group were considered as outliers and thus removed from analysis.

Where [1] appears, read: placebo, 3 g/day, 6 g/day, week 0 to week 24, FIG. 4.

As for `CC(=O)N[C@H]1[C@H]([C@H](O)[C@H](O)CO)OC(O)(C(=O)O)C[C@@H]1O` (some centres unmarked) [Sialic Acid, 5-N-acetylneuraminic acid], where the note is “6 g/day dosage group, week 0 to week 24, FIG. 2”, the “serum level of LAP TGF-b1, change towards normal level compared to placebo” value is listed as “declined at a faster rate”. Further, the “serum level of NCAM, change towards normal level compared to placebo” value (6 g/day dosage group, week 0 to week 24, FIG. 3) was “increased at a faster rate”. In addition, where the note is “6 g/day group, week 24”, the “change in the levels of the eleven analytes of Table 14 compared to the placebo group” value was “more favorable change”. Also, under setting [1], the “slope of delta from placebo to higher dosage group, analytes with baseline levels higher than normal controls (PAI-1, LGL, myoglobin, ENA-78, TGfb1, M-CSF1, MMP-9, CgA)” value is on record as “downward trend” and the “slope of delta from placebo to higher dosage group, analytes with baseline levels lower than normal controls (NCAM, ErbB3)” value is listed as “upward trend”.
